Results on 15 compounds are retold here after patent publication US11925637B2, “Phenylpiperazine proprotein convertase subtilisin/kexin type 9 (PCSK9) modulators and their use” (SRX Cardio, LLC, priority 2015, dated 2024).

Assay [1] addresses T1, recombinant PCSK9 (Homo sapiens, UniProt Q8NBP7). The experiment in a line: DiI-LDL Uptake Assay (% inhibition of recombinant PCSK9). The class given is cell-based. Conditions: 2.5 ug/mL recombinant PCSK9, HepG2 cells (FIG. 1), read-out: Uptake Assay: % Inhibition of 2.5 ug/mL recombinant PCSK9 @ X compound dose; for inhibition at 10 µM: compound dose 10 uM; for inhibition at 20 µM: compound dose 20 uM; for inhibition at 5 µM: compound dose 5 uM; for inhibition at 1.25 µM: compound dose 1.25 uM; for inhibition at 2.5 µM: compound dose 2.5 uM. Here is the method: The cells were incubated in a 96-well plate for a total of 16 h in the absence or presence of recombinant PCSK9 (final concentration 2.5 ug/ml) protein alone or recombinant PCSK9 protein pre-mixed with indicated concentration of experimental compounds (Cmpd #). After 16 h, DiI-LDL (final concentration 5 ug/ml) was added to the incubation mixtures. After 4 h, cells are stained with Hoechst 33342 for 30 minutes, then rinsed with phosphate buffered saline, and then a final volume of 100 ul phosphate buffered saline was added to each well. The fluorescence was measured (DiI: excitation at 550 nm and emission at 590 nm; Hoechst: excitation at 355 nm, emission at 460 nm). The percent recombinant PCSK9 inhibition was calculated as [‘Compound Dose DiI Fluorescence’−‘2.5 ug/ml PCSK9-treated DiI Fluorescence’]/[‘No PCSK9 DiI Fluorescence’−‘2.5 ug/ml PCSK9-treated DiI Fluorescence’]×100%.
Cellular DiI-LDL uptake can be measured using protocols adapted from Benjannet et al., “Effects of the prosegment and pH on the activity of PCSK9: evidence for additional processing events” J Biol Chem. 285(52): 40965-40978 (2010) and “Composition and Methods of Use of Small Molecules as Binding Ligands for the Modulation of Proprotein Convertase Subtilisin/Kexin Type 9 (PCSK9) Protein Activity” (WO2016029037), which are incorporated by reference in their entirety.
Cells, such as HepG2, HuH7, FL83B, or a cell line transfected with a short-hairpin PCSK9 knockdown sequence such as HepG2/shPCSK9, HuH7/shPCSK9, or FL83B/shPCSK9 are plated and cultured at 37° C. for 12-24 h. Culture media is removed and replaced with fresh lipoprotein-depleted culture media supplemented with 5 ug/mL of DiI-LDL (Kalen Biomedical) or lipoprotein-depleted culture media supplemented with 5 ug/mL of DiI-LDL plus a predetermined concentration of recombinant PCSK9, for example a 10 nM final concentration of PCSK9. Lipoprotein-depleted culture media can be composed of DMEM (Invitrogen) with 10% lipoprotein-depleted fetal bovine serum (Kalen Biomedical) and supplemented with penicillin-streptomycin (Life Technologies). Cells are dosed with small molecule test compounds at doses ranging from 0 nM to 100 uM.
Following an incubation period of specified length, such as 6 hours, Hoechst 33342 (AnaSpec) stain is added to the cell media per manufacturer's instructions and incubated for a specified length (e.g., 30 minutes). The lipoprotein-depleted media is removed and cells rinsed three times with phosphate buffered saline. A final volume of phosphate buffered saline is added back to the wells. The DiI fluorescence is measured with a plate reader using an exciting wavelength of 550 nm and the resulting emission at 590 nm is measured. The Hoechst stain fluorescence is measured with a plate reader using an exciting wavelength of 355 nm and the resulting emission at 460 nm is measured.
Cells are analyzed by for both Hoechst stain (DNA content) and DiI-LDL fluorescence. Cells incubated with small molecule compounds that are inhibitors of PCSK9 will be expected to show increased amounts of DiI-LDL fluorescence, relative to control (no compound) specimens, and cells incubated with small molecule compounds that are activators of PCSK9 will be expected to show decreased amounts of DiI-LDL fluorescence relative to control (no compound) specimens.

Assay [2] concerns the target T1, recombinant PCSK9. Nature of the assay: LDLR Flow (FACS) Assay (% inhibition of recombinant PCSK9). The settings on record: 5.0 ug/mL recombinant PCSK9, HuH7 cells (FIG. 2), read-out: LDLR Flow Assay: % Inhibition of 5.0 ug/mL recombinant PCSK9 @ X compound dose; for inhibition at 1.25 µM: Huh-7, compound dose 1.25 uM; for inhibition at 10 µM: Huh-7, compound dose 10 uM; for inhibition at 0.313 µM: Huh-7, compound dose 0.313 uM; for inhibition at 20 µM: Huh-7, compound dose 20 uM. The class given is cell-based. On the procedure:
The cells were incubated in 24-well plates for a total of 6 h in the absence or presence of recombinant PCSK9 protein (final concentration of 5.0 ug/ml), or in the presence of PCSK9 protein mixed with indicated concentration of experimental compound (Cmpd #). After 6 hours, the cells were released from the plate, stained with anti-LDLR antibody, then rinsed, counterstained with DAPI, and then measured by fluorescence activated cell sorting (FACS). The percent recombinant PCSK9 inhibition was calculated as [‘Compound Dose LDLR Fluorescence’−‘5.0 ug/ml PCSK9-treated LDLR Fluorescence’]/[‘No PCSK9 Basal LDLR Fluorescence’−‘5.0 ug/ml PCSK9-treated LDLR Fluorescence’]×100%.
LDLR levels can be measured using flow cytometry or fluorescence activated cell sorting (FACS) using protocols adapted from Benjannet et al., “Effects of the prosegment and pH on the activity of PCSK9: evidence for additional processing events” J Biol Chem. 285(52): 40965-40978 (2010) and “Composition and Methods of Use of Small Molecules as Binding Ligands for the Modulation of Proprotein Convertase Subtilisin/Kexin Type 9 (PCSK9) Protein Activity” (WO2016029037), which are incorporated by reference in their entirety.
Cells, such as HepG2, HuH7, FL83B, or a cell line transfected with a short-hairpin PCSK9 knockdown sequence such as HepG2/shPCSK9, HuH7/shPCSK9, or FL83B/shPCSK9 are plated and cultured at 37° C. for 12-24 h. Culture media is removed and replaced with fresh culture media or culture media plus a predetermined amount of recombinant PCSK9, for example a 10 nM final concentration of PCSK9. Cell culture media can be composed of DMEM (Invitrogen) with 10% fetal bovine serum (Life Technologies) supplemented with penicillin-streptomycin (Life Technologies). Cells are dosed with small molecule test compounds at doses ranging from 0 nM to 100 uM
Following an incubation period of specified length, such as 6 hours, the media is removed and the cells are rinsed three times with a rinse solution (i.e., Dulbecco's phosphate buffered saline (D-PBS, Life Technologies) supplemented with 0.5% bovine serum albumin (BSA, Sigma) and 1 g/L glucose (Sigma)). The fluid is then removed, and cells are released from the plate using TrypLE Express (Life Technologies) per manufacturer's recommend procedures, such as incubation for 5-10 minutes at 37° C. The TyrpLE-Cell suspension is then transferred to 15 mL conical tubes, volume is increased to 2 mL with D-PBS supplemented with 0.5% BSA and […] glucose, and the tubes are centrifuged at 250× gravity for 10 minutes. Following centrifugation, the supernatant is aspirated and the cell pellet is resuspended in 100 uL D-PBS containing 0.5% BSA and […] glucose, and cells are labeled with anti-LDLR antibody per the manufacturer's recommended procedure. The cells are then pelleted by centrifugation, resuspended in 300 uL PBS and counterstained with 4′,6-Diamidino-2-phenylindole (DAPI, Cayman Chemical) as a cell viability marker, other cell viability markers such as 7-aminoactinomycin D (7AAD, Life Technologies) have also been described in the art.
Cells are analyzed for both cell viability marker (dead cells) and LDLR in live cells using a flow cytometer per the manufacturer's operating manual. Cells incubated with small molecule compounds that are inhibitors of PCSK9 will be expected to show increased amounts of LDLR, relative to control (no compound) specimens, and cells incubated with small molecule compounds that are activators of PCSK9 will be expected to show decreased amounts of LDLR relative to control (no compound) specimens.

Some results are limits rather than exact numbers.

T1 sequence (Q8NBP7 153-692): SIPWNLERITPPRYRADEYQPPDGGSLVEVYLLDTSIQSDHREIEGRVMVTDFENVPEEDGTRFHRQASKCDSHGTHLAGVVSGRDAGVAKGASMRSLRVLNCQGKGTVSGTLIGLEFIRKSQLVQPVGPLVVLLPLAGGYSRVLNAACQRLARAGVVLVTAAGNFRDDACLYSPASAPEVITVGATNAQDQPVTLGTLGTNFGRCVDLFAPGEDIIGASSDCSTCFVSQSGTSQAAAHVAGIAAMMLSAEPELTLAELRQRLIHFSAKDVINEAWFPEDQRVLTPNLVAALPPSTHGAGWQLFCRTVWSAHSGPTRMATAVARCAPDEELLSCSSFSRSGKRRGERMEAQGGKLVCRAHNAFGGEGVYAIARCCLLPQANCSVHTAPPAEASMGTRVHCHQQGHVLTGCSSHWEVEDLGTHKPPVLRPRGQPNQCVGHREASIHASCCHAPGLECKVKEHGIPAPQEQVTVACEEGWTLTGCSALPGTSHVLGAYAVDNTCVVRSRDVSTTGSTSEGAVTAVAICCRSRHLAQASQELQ

As for `c1ccc(COc2ccc(N3CCNCC3)cc2)cc1` [Compound 1, 1-(4-(benzyloxy)phenyl)piperazine], the inhibition at 10 µM at recombinant PCSK9 [1] is above 100%; on recombinant PCSK9 [2] it was around 34%. The inhibition at 1.25 µM on recombinant PCSK9 [2] was around 16%.

On to `O=S(=O)(c1ccccc1)c1ccc(N2CCNCC2)c(F)c1` [Compound 2, 1-(2-fluoro-4-(phenylsulfonyl)phenyl)piperazine], for which, at recombinant PCSK9 [1], the inhibition at 20 µM is above 100%. Moreover, on recombinant PCSK9 [2], the inhibition at 1.25 µM was around 45%. Further, the inhibition at 5 µM on recombinant PCSK9 [2] (Huh-7, compound dose 5 uM) is around 66%.

Regarding `c1ccc(Oc2ccc(N3CCNCC3)cc2)cc1` [Compound 3], the inhibition at 10 µM on recombinant PCSK9 [1] is above 100%. Besides, on recombinant PCSK9 [2], the inhibition at 1.25 µM was around 20% and the inhibition at 10 µM is around 30%.

For `Oc1cc(Oc2ccc(N3CCNCC3)cc2)ncn1` [Compound 4, 6-(4-(piperazin-1-yl)phenoxy)pyrimidin-4-ol], at recombinant PCSK9 [2], the inhibition at 0.313 µM was around 19% and the inhibition at 1.25 µM was around 30%.

For `O=S(=O)(c1ccc(N2CCNCC2)cc1)N1CCCC1` [Compound 5, 1-(4-(pyrrolidin-1-ylsulfonyl)phenyl)piperazine], on recombinant PCSK9 [2], the inhibition at 1.25 µM is around 10% and the inhibition at 10 µM was around 20%.

For the compound `Fc1ccc(Cc2ccc(N3CCNCC3)cc2)cc1` [Compound 6, 1-(4-(4-fluorobenzyl)phenyl)piperazine], the inhibition at 5 µM on recombinant PCSK9 [1] was above 100%. For the same compound, at recombinant PCSK9 [2], the inhibition at 1.25 µM is around 15% and the inhibition at 10 µM is around 40%.

`O=C1CNCCN1c1ccc(Oc2ccccc2)cc1` [Compound 7, 1-(4-phenoxyphenyl)piperazin-2-one]: on recombinant PCSK9 [2], the inhibition at 1.25 µM is around 18%.

With `c1cc(C2CCNCC2)ccc1OC1CCCCC1` [Compound 8, 4-(4-(cyclohexyloxy)phenyl)piperidine], the inhibition at 5 µM on recombinant PCSK9 [1] was above 100%. At recombinant PCSK9 [2], the inhibition at 0.313 µM was around 15%, the inhibition at 1.25 µM was around 25% and the inhibition at 10 µM is around 35%.

In the case of `c1cc(C2CCNCC2)ccc1OC1CCOCC1` [Compound 9, 4-(4-((tetrahydro-2H-pyran-4-yl)oxy)phenyl)piperidine], at recombinant PCSK9 [2], the inhibition at 20 µM is around 23%.

For `O=S(=O)(Nc1ccccc1)c1ccc(N2CCNCC2)cc1` [Compound 10, N-phenyl-4-(piperazin-1-yl)benzenesulfonamide], on recombinant PCSK9 [1], the inhibition at 20 µM is above 100%. Besides, on recombinant PCSK9 [2], the inhibition at 1.25 µM was above 10%, the inhibition at 10 µM is above 25% and the inhibition at 20 µM was above 40%.

As to `O=C(Nc1ccccc1)c1ccc(N2CCNCC2)cc1` [Compound 11, N-phenyl-4-(piperazin-1-yl)benzamide], the inhibition at 20 µM on recombinant PCSK9 [1] was around 49%.

Turning to `O=S(=O)(Nc1ccc2c(c1)CCCC2)c1ccc(N2CCNCC2)cc1` [Compound 12, 4-(piperazin-1-yl)-N-(5,6,7,8-tetrahydronaphthalen-2-yl)benzenesulfonamide], at recombinant PCSK9 [1], the inhibition at 1.25 µM is around 66% and the inhibition at 2.5 µM was above 100%. For the same compound, on recombinant PCSK9 [2], the inhibition at 1.25 µM is around 10%, the inhibition at 10 µM was around 25% and the inhibition at 20 µM was around 45%.

Consider `c1cc(N2CCNCC2)ccc1OC1CCCCC1` [Compound 13, 1-(4-(cyclohexyloxy)phenyl)piperazine], for which the inhibition at 20 µM on recombinant PCSK9 [1] is above 100%. Besides, the inhibition at 0.625 µM on recombinant PCSK9 [2] (Huh-7, compound dose 0.625 uM) was around 20%. In addition, the inhibition at 10 µM at recombinant PCSK9 [2] is around 40%.

For `O=S(=O)(Nc1ccccc1)c1ccc(C2CCNCC2)cc1` [Compound 14, N-phenyl-4-(piperidin-4-yl)benzenesulfonamide], at recombinant PCSK9 [1], the inhibition at 20 µM is above 100%.

As for `O=S(=O)(Nc1ccc2c(c1)CCCC2)c1ccc(C2CCNCC2)cc1` [Compound 15, 4-(piperidin-4-yl)-N-(5,6,7,8-tetrahydronaphthalen-2-yl)benzenesulfonamide], at recombinant PCSK9 [1], the inhibition at 1.25 µM is above 50% and the inhibition at 2.5 µM is above 100%.
